Results: ChEMBL document CHEMBL1132732, “HINT predictive analysis of binding between retinol binding protein and hydrophobic ligands” (Bioorg Med Chem Lett, 2000)
pKd: −log10 of the molar value.

Tests used:
[1] = Partition coefficient (logP); format: physicochemical; conditions: octanol/water
[2] = Dissociation constant with retinol binding protein was determined

| SMILES | logP [1] | pKd [2] |
| --- | --- | --- |
| CCNC(=O)/C=C(C)/C=C/C=C(C)/C=C/C1=C(C)CCCC1(C)C | 6.31 | 7.05 |
| C/C=C(C)/C=C/C=C(C)/C=C/C1=C(C)CCCC1(C)C | 8.15 | – |
| CC1=C(/C=C/C(C)=C/C=C/C(C)=C/C(=O)Nc2ccc(O)cc2)C(C)(C)CCC1 [FENRETINIDE] | – | 6.77 |
| CC1=C(/C=C/C(C)=C/C=C/C(C)=C/CO)C(C)(C)CCC1 [RETINOL] | 6.16 | 7.15 |
